According to US11351179B1, “Pharmaceutical compositions and methods for treatment of psychiatric disorders” (LA PharmaTech Inc., priority 2021, dated 2022):

Columns and labels:
MDD and panic disorder = test: Clinical case: patient with MDD and panic disorder treated orally once daily; assay type: in vivo, human; conditions: each drug given for 2 months before the composition
Source text: A patient had MDD and panic disorder. […] Because azelastine is approved for the treatment of allergic rhinitis and asthma, and the combination composition of azelastine and folic acid had never been expected to be used to treat patients with depression or anxiety, this dramatic clinical outcome which included a fast reduction of symptoms was unexpected. […] This composition with two mechanisms of action of anti-inflammation would provide a new solution for treating psychiatric diseases which are incurable by other options, such traditional SSRIs, NSRIs, benzodiazepines, and the like alone.

[1] = system: mild chronic depression and anxiety induced sleep disorder; test: Clinical case: patient with mild chronic depression and anxiety induced sleep disorder treated once daily; assay type: in vivo, human; conditions: citalopram and lorazepam together for 3 months before the composition
Method: A patient was diagnosed with mild chronic depression and anxiety induced sleep disorder and was treated with citalopram and lorazepam for 3 months. […] Then they were treated with a composition of folic acid (0.19 mg) and azelastine (2 mg) once daily. […] The inventors believe the hypothesis as explained in Example 1 above is applicable here as well. In this case, the composition of two mechanisms of action provided a new solution for treating their chronic depression and insomnia which could not be treated with other options, such traditional SSRIs, NSRIs, benzodiazepines, and the like alone.

| SMILES | clinical improvement on prior treatment (MDD and panic disorder) | improvement of symptoms on prior treatment [1] |
| --- | --- | --- |
| O=C1CC2(CCCC2)CC(=O)N1CCCCN1CCN(c2ncccn2)CC1 [buspirone] | no significant clinical improvement | – |
| O=C1Nc2ccc(Cl)cc2C(c2ccccc2Cl)=NC1O (stereo not drawn) [lorazepam] | – | never improved to the level of their satisfaction |
| CN[C@H]1CC[C@@H](c2ccc(Cl)c(Cl)c2)c2ccccc21 [sertraline] | no significant clinical improvement | – |
